Patent publication US8765684B2, “Solid materials of {[(2S,5R,8S,11S)-5-benzyl-11-(3-guanidino-propyl)-8-isopropyl-7-methyl-3,6,9,12,15-pentaoxo-1,4,7,10,13-pentaaza-cyclopentadec-2-yl]-acetic acid} and methods for obtaining them” (Merck Patent GmbH, priority 2009, dated 2014)
In brackets after ≈: the same amount, converted by molar mass. Values belong to the compound of their own block, whether it stands above or below them.

Key:
[1] = type: physicochemical
Text: Preferably, the anhydrates or ansolvates according to the invention and especially the crystalline form A1 can be characterised, alternatively or additionally, by dynamic vapour sorption experiments. The results can be obtained by standard techniques as described in Rolf Hilfiker, ‘Polymorphism in the Pharmaceutical Industry’, Wiley-VCH. Weinheim 2006 (Chapter 9: Water Vapour Sorption, and references therein). […] Eur. criteria.
Preferably, the tetrasolvates according to the invention, more preferably the tetrahydrates according to the invention and especially the crystalline form S3 can be characterised, alternatively or additionally, by dynamic vapour sorption experiments. The results can be obtained by standard techniques as described in Rolf Hilfiker, ‘Polymorphism in the Pharmaceutical Industry’, Wiley-VCH. Weinheim 2006 (Chapter 9: Water Vapour Sorption, and references therein).
Dynamic Vapor Sorption measurements are preferably obtained on a SMS DVS Intrinsic system. The results are preferably obtained by standard techniques as described by Rolf Hilfiker “Polymorphism in the Pharmaceutical Industry” Wiley-VCH Weinheim 2006 (Chapter 9: Water Vapour Sorption, and references therein.) Approx. 2-10 mg of samples are preferably weighed into an Aluminium 100 μL pan and placed in the sample incubator of the DVS instrument with microbalance. A nitrogen overall flow rate of 200 mL/min (combined dry and humid stream) is preferably used for humidification. Water vapor sorption isotherms are preferably acquired at 25° C. in the range 0% relative humidity to 98% relative humidity mostly with 10% relative humidity steps. For all relative humidity steps, an equilibrium condition of dm/dt≦0.0005 wt %/min are preferably used, with a minimum relative humidity step time of 10 minutes and a maximum relative humidity step time of 360 minutes which is preferably used as a timeout if the dm/dt criterai mentioned above is not been reached.
A SMS DVS I system is used for the dynamic vapour experiments regarding crystalline form S3. The results have been obtained by standard techniques as described in Rolf Hilfiker, ‘Polymorphism in the Pharmaceutical Industry’, Wiley-VCH. Weinheim 2006 (Chapter 9: Water Vapour Sorption, and references therein). […] During the water adsorption cycle there is shown an assembly of water molecules (ca. 10 wt%) in the lattice at elevated rh. In the second desorption cycle there is a loss of this amount of water.
(§1) A SMS DVS Intrinsic is used for the dynamic vapour experiments. The results are obtained by standard techniques as described in Rolf Hilfiker, ‘Polymorphism in the Pharmaceutical Industry’, Wiley-VCH. Weinheim 2006 (Chapter 9: Water Vapour Sorption, and references therein). […] Upon water vapour adsorption, an assembly of water molecules in the lattice is observed, with a maximum weight gain of approx. 8 wt % at elevated rh. In the second desorption cycle a total mass loss of approx. 9.9 wt % is observed. For a Cilengitide Dihydrate Di-Methanolate, the calculated Methanol content equals 9.3 wt %.
as §1, with “6.4” for “8”, “9.2” for “9.9”, “Di-Ethanolate,” for “Di-Methanolate,”, “Ethanol” for “Methanol”, “12.5” for “9.3”

[2] = Competitive slurry conversion of pseudopolymorphic form and form A1 (1:1) in Water/Methanol and Water/Ethanol mixtures; type: physicochemical; settings: for Methanol in the mixture with Water leading to form S1: 1:1 pseudopolymorphic form + A1
Protocol: b) Additionally, crystalline tetrasolvates according invention and especially crystalline forms S1 and S2 can be manufactured by competitive slurry conversion experiments with a mixture of a pseudopolymorphic form (for example S1, S2, S3 or mixtures of these) with form A1 (1:1) in Water/Methanol and Water/Ethanol mixtures with different alcohol contents at different temperatures, respectively.
(§2) Approx. 20 mg of a pseudopolymorphic form (for example S1, S2, S3 or mixtures of these) and 20 mg of form A1 of Cilengitide are dispersed in 300 μl Water/alcohol mixture at 0° C. or room temperature (25° C.). The dispersion is stirred for 24 h and additionally for 3 weeks at RT (25° C.) (long-term experiment) by a magnetic stirrer and finally filtered
Approx. 20 mg of a pseudopolymorphic form (for example S1, S2, S3 or mixtures of these) and 20 mg of form A1 of Cilengitide are dispersed in 300 μl Water/alcohol mixture at 50° C. The dispersion is stirred for 24 h by a magnetic stirrer and finally filtered.
Additionally form A1 can be manufactured by competitive slurry conversion experiments with a mixture of a pseudopolymorphic form (for example S1, S2, S3 or mixtures of these) and form A1 (1:1) in Water/Methanol and Water/Ethanol mixtures with different alcohol contents at different temperatures. In the following table the conditions for the experiments leading to the pure form A1 are listed.
as §2, with “C.,” for “C. or”, “and 50° C.” for “(25° C.).”, “filtered.” for “filtered”

[3] = Slurry conversion and competitive slurry conversion in water, saline, buffer and other solvents; type: physicochemical; settings: in the presence of aqueous based solvents (suspensions, wetted material), absence of methanol and/or ethanol
Protocol: a) Crystalline tetrasolvates according to the invention and especially crystalline forms S1 and S2, can be obtained by slurry conversion from form A1 in a Methanol/Water mixture (70 v %:30 v %) at 25° C. for 2 days stirring time and Ethanol/Water mixture (60 v %:40 v %) at 25° C. for 18 days stirring time, respectively. General procedure:
Approx. 500 mg of form A1 of Cilengitide are dispersed in 5 ml solvent at room temperature. The dispersion is stirred for the mentioned time by a magnetic stirrer and finally filtered.
Form A1 of Cilengitide can be obtained by slurry conversion from pseudopolymorphic forms (for example S1, S2, S3 or mixtures of these) in Water at 25° C. An increased temperature (50° C.) accelerates the conversion to form A1.
Approx. 10 g of a pseudopolymorphic form (for example S1, S2, S3 or mixtures of these) of Cilengitide are dispersed in 50 ml deionised water at room temperature. The dispersion is stirred for 24 h by a magnetic stirrer and finally filtered.
Also the pure form form A1 can be manufactured by competitive slurry conversion experiments with a mixture of a pseudopolymorphic form (for example S1, S2, S3 or mixtures of these) and A1 (1:1) in Acetone, Acetonitrile, Isopropanol, physiological NaCl solution, Phosphate buffer (pH 7.4) and 1:1 (v:v) mixtures of Acetone, Acetonitrile, Isopropanol with Water at RT (25° C.).
Approx. […]

[4] = Solubility of tetrahydrate Form S3 in different solvents; type: physicochemical
[5] = Solid-state properties (hygroscopicity, stability, dissolution) stated in comparison with amorphous material and salts; type: physicochemical; settings: solid material; for Hygroscopicity: comparison crystalline forms vs amorphous material
[6] = Methanol vapour sorption (DVS, hydrate form to form S1); type: physicochemical
Protocol: In the respective dynamic vapor sorption experiments discussed in more detail herein using methanol vapor at 98% relative saturation for the Dihydrate-dimethanolate/crystalline form S1 at 25° C. starting with the tetrahydrate a mass gain of 9% has been obtained. This is in good agreement with the above shown results for the tetramethanolate (calculated 108.5%, i.e. 8.5% of mass gain).
Preferably, the tetrasolvates according to the invention, more preferably the Dihydrate-dimethanolate, the Dihydrate-methanolate, the Dihydrate-monoethanolate, the Dimethanolate and/or the desolvates thereof, and especially the crystalline form S1 can be characterised, alternatively or additionally, by dynamic vapour experiments using water vapour and/or methanol vapour. The results can be obtained by standard techniques as described in Rolf Hilfiker, ‘Polymorphism in the Pharmaceutical Industry’, Wiley-VCH. Weinheim 2006 (Chapter 9: Water Vapour Sorption, and references therein).
Upon water vapour adsorption, an assembly of water molecules in the lattice is observed, with a maximum weight gain of approx. 8 wt % at elevated rh. In the second desorption cycle a total mass loss of approx. 9.9 wt % is observed. For a Dihydrate Di-Methanolate of the compound of formula I, the calculated Methanol content equals 9.3 wt %. […] Methanol Vapour Sorption Isotherm (25° C.) of a hydrate form to form S1 (SMS DVS Advantage) FIG. 14.
Thus, crystalline form S1 is a crystalline Methanol solvate form or a mixed water/methanol solvate form, preferably selected from the Dihydrate-methanolate, the Dihydrate-monoethanolate, the Dimethanolate and/or the desolvates thereof, which can be obtained e.g. via Methanol Vapour Sorption, preferably via Methanol Vapour Sorption starting with a hydrate structure, such as the hydrates according to the invention and especially the tetrahydrate according to the invention, i.e crystalline form S3. […]

[7] = Conditioning of amorphous Cilengitide under methanol atmosphere; type: physicochemical; settings: MeOH liquid phase 100 v %
Text: As still another example, conditioning of amorphous material of the compound according to formula I or hydrate forms under methanol atmosphere yielded crystalline solvates with 2 molecules methanol per molecule of the compound according to formula I.
Conditioning of amorphous Cilengitide (abbreviated: Cil; Cilengitide=Cyclo-(Arg-Gly-Asp-DPhe-NMeVal) under methanol atmosphere yielded a solvate with 2 molecules methanol per molecule Cilengitide.

[8] = 50° C. for 1 day, table of b579
[9] = 50° C. for 1 day, table of b595
[10] = water vapour sorption, 25° C., listed as S1

Hygroscopicity classification ([1]; acc. to Ph. Eur. criteria, water vapour sorption 25° C.): non-hygroscopic
Water uptake levels ([1]; up to 98% relative humidity, 25° C.): small
Ethanol in the mixture with Water leading to pure form A1 ([2]; 0° C. for 1 day): 0-10 v %
Methanol in the mixture with Water leading to pure form A1 ([2]; 0° C. for 1 day): 0 v %
Ethanol in the mixture with Water leading to form A1 (no pseudopolymorphic form obtained) [2, 8]: 90-100 v %
Methanol in the mixture with Water leading to form A1 (no pseudopolymorphic form obtained) [2, 8]: 90-100 v %
Ethanol in the mixture with Water leading to pure form A1 [2, 9]: 0-80 v %
Methanol in the mixture with Water leading to pure form A1 [2, 9]: 0-70 v %
Ethanol in the mixture with Water leading to pure form A1 ([2]; RT for 3 weeks): 0-20 v %
Methanol in the mixture with Water leading to pure form A1 ([2]; RT for 3 weeks): 0-40 v %
Ethanol in the mixture with Water leading to pure form A1 ([2]; RT for 1 day): 0-30 v %
Methanol in the mixture with Water leading to pure form A1 ([2]; RT for 1 day): 0-50 v %
Thermodynamic stability of the form [3]: thermodynamically stable form
Compound: cyclo-(Arg-Gly-Asp-DPhe-NMe-Val) [crystalline form A1]
Physical stability of the crystal form versus relative humidity [1]: physical stability of the crystal form throughout the entire relative humidity range (0-98%)
Formation or conversion to a hydrate ([1]; water vapour sorption up to 98% relative humidity): No formation or conversion to a hydrate is observed

solubility ([4]; solvent H2O): 21.6 mg/mL (≈ 36.7 mM)
solubility ([4]; solvent H2O/Acetone (1:1)): 22.7 mg/mL (≈ 38.6 mM)
solubility ([4]; solvent H2O/Acetonitrile (1:1)): 24.3 mg/mL (≈ 41.3 mM)
solubility ([4]; solvent H2O/EtOH (1:1)): 13 mg/mL (≈ 22.1 mM)
solubility ([4]; solvent H2O/MeOH (1:1)): 12.8 mg/mL (≈ 21.7 mM)
solubility ([4]; solvent H2O/iPrOH (1:1)): 22.9 mg/mL (≈ 38.9 mM)
solubility ([4]; solvent buffer pH 7.4): 24.4 mg/mL (≈ 41.4 mM)
solubility ([4]; solvent physiological NaCl solution): 21.1 mg/mL (≈ 35.8 mM)
Compound: CC(C)[C@H]1C(=O)N[C@@H](CCCN=C(N)N)C(=O)NCC(=O)N[C@@H](CC(=O)O)C(=O)N[C@H](Cc2ccccc2)C(=O)N1C [crystalline form S3, cyclo-(Arg-Gly-Asp-DPhe-NMe-Val)]

Hygroscopicity ([5]; listed as amorphous forms): unfavourably hygroscopic
Hygroscopicity ([5]; listed as amorphous solid material): very high hygroscopicity
Physical and/or chemical (solid state) stability ([5]; comparison crystalline forms vs amorphous phase): low stability
Compound: CC(C)[C@H]1C(=O)N[C@@H](CCCNC(=N)N)C(=O)NCC(=O)N[C@@H](CC(=O)O)C(=O)N[C@H](Cc2ccccc2)C(=O)N1C [amorphous material, cyclo-(Arg-Gly-Asp-DPhe-NMe-Val)]

Maximum weight gain upon water vapour adsorption ([1]; elevated rh, 25° C., listed as S1): approx. 8 wt %
Mass loss in the first desorption cycle [1, 10]: approx. 8 wt %
Total mass loss in the second desorption cycle [1, 10]: approx. 9.9 wt %
Thermodynamic stability of the form ([6]; atmosphere of 100% Methanol vapour): thermodynamically stable form
Methanol taken up by the sample ([6]; elevated Methanol partial pressure, starting with a hydrate structure): approx. 9 wt %
Mass gain ([6]; methanol vapor at 98% relative saturation, 25° C., starting with the tetrahydrate): 9%
Methanol in the mixture with Water leading to form S1 ([2]; 0° C. for 1 day): 40-100 v %
Methanol in the mixture with Water leading to form S1 ([2]; RT for 3 weeks): 60-100 v %
Methanol in the mixture with Water leading to form S1 ([2]; RT for 1 day): 60-100 v %
H2O KF [7]: 0.3 wt %
MeOH HS-GC [7]: 10.0 wt %
Σ TG [7]: 10.4 wt %
H2O KF ([7]; per 1 mol Cil): 0.1 mol
MeOH HS-GC ([7]; per 1 mol Cil): 2.1 mol
Compound: cyclo-(Arg-Gly-Asp-DPhe-NMe-Val) [crystalline form S1]
